In US6841519B1, “Isoxazoline derivatives and herbicides containing the same as the active ingredient” (Kumiai Chemical Industry Co., Ltd., priority 1999, dated 2005):

Columns and labels:
Assay type in all cases: in vivo
[1] = test system: Setaria viridis (L.) Beauv. (Se); assay: Test for herbicidal effect by upland field soil treatment (Test Example 2), Se
How it was run: (§1)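 Echinochloa crus-galli and Setaria viridis were sown in upland field soil and covered, then the soil surface was sprayed with water-diluted wettable powder at 100 g active ingredient per 10 ares (100 liters per 10 ares). Plants were grown in a greenhouse and scored on a standard scale on day 21.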

[2] = test system: Echinochloa crus-galli (L.) Beauv. var. crusgalli (Ec); assay: Test for herbicidal effect by upland foliage treatment (Test Example 3); details: 100 g/10 a active ingredient, examined at 14th day
Method: Test For Herbicidal Effect By Upland Foliage Treatment
An upland field soil was filed in a plastic pot of 80 cm^2. Seeds of Echinochloa crus-galli (L.) Beauv. var. crusgalli (Ec) were sowed. Breeding was made in a greenhouse for 2 weeks. Wettable powders produced in accordance with the Formulation 1 were diluted with water and sprayed on the whole foliage of plants from above the plants using a small sprayer in an amount of 100 liters per 10 ares so that the amount of each active ingredient became 100 g per 10 ares. Then, breeding was made in the greenhouse, and the herbicidal effect of each wettable powder was examined at the 14th day from the treatment in accordance with the standard shown in Table 40.

[3] = test system: Echinochloa crus-galli (L.) Beauv. var. crusgall (Ec); assay: Test for herbicidal effect by upland field soil treatment (Test Example 2), Ec
How it was run: as §1

[4] = test system: Echinochloa oryzicola Vasing. (Eo); assay: Test for herbicidal effect by paddy field soil treatment (Test Example 1); details: application amount (active ingredient) 100 g/10 a, examined at the 21st day from the treatment, index per Table 40
How it was run: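 Eo seeds sown in puddled paddy soil under 3 cm water; next day a water-diluted wettable powder was dropped onto the water surface at 100 g active ingredient per 10 ares. Herbicidal effect scored on a standard scale 21 days after treatment, greenhouse-grown.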

[5] = application amount (active ingredient) 100 g/10 a, examined at the 21st day from the treatment, index per Table 40
[6] = 100 g/10 a active ingredient, examined at 21st day

SMILES | Herbicidal effect to Se [1, 5] | Herbicidal effect to Ec [2] | Herbicidal effect to Ec [3, 5] | Herbicidal effect to Eo [4] | Herbicidal effect to Se [1, 6] | Herbicidal effect to Ec [3, 6]
CC1(C)CC(S(=O)(=O)Cc2ccccc2)=NO1 [Compound 1-1] | 5 (A herbicidal effect or phytotoxicity of 90% or more) | 5 (A herbicidal effect or phytotoxicity of 90% or more) | 5 (A herbicidal effect or phytotoxicity of 90% or more) | 5 (A herbicidal effect or phytotoxicity of 90% or more) |  | 
C#CCOc1ccccc1CS(=O)(=O)C1=NOC(C)(C)C1 [Compound 1-559] |  | 5 (A herbicidal effect or phytotoxicity of 90% or more) |  | 5 (A herbicidal effect or phytotoxicity of 90% or more) | 5 (A herbicidal effect or phytotoxicity of 90% or more) | 5 (A herbicidal effect or phytotoxicity of 90% or more)
CCCc1cccc(F)c1CS(=O)(=O)C1=NOC(C)(C)C1 [Compound 1-553] |  | 5 (A herbicidal effect or phytotoxicity of 90% or more) |  | 5 (A herbicidal effect or phytotoxicity of 90% or more) | 5 (A herbicidal effect or phytotoxicity of 90% or more) | 5 (A herbicidal effect or phytotoxicity of 90% or more)
CC1(C)CC(S(=O)(=O)Cc2cc(C(F)(F)F)ccc2C(F)(F)F)=NO1 [Compound 1-544] |  | 5 (A herbicidal effect or phytotoxicity of 90% or more) |  | 5 (A herbicidal effect or phytotoxicity of 90% or more) | 5 (A herbicidal effect or phytotoxicity of 90% or more) | 5 (A herbicidal effect or phytotoxicity of 90% or more)
COc1cccc(C)c1CS(=O)(=O)C1=NOC(C)(C)C1 [Compound 1-583] |  | 4 (A herbicidal effect or phytotoxicity of 70% to less than 90%) |  | 5 (A herbicidal effect or phytotoxicity of 90% or more) | 5 (A herbicidal effect or phytotoxicity of 90% or more) | 5 (A herbicidal effect or phytotoxicity of 90% or more)
CC1(C)CC(S(=O)(=O)Cc2cc(F)c(F)c(F)c2)=NO1 [Compound 1-509] |  | 4 (A herbicidal effect or phytotoxicity of 70% to less than 90%) |  | 5 (A herbicidal effect or phytotoxicity of 90% or more) | 5 (A herbicidal effect or phytotoxicity of 90% or more) | 5 (A herbicidal effect or phytotoxicity of 90% or more)
CC1(C)CC(S(=O)(=O)Cc2cccc(OC(F)F)c2)=NO1 [Compound 1-56] | 5 (A herbicidal effect or phytotoxicity of 90% or more) | 5 (A herbicidal effect or phytotoxicity of 90% or more) | 5 (A herbicidal effect or phytotoxicity of 90% or more) | 5 (A herbicidal effect or phytotoxicity of 90% or more) |  | 
CCOc1cccc(C(F)(F)F)c1CS(=O)(=O)C1=NOC(C)(C)C1 [Compound 1-585] |  | 5 (A herbicidal effect or phytotoxicity of 90% or more) |  | 5 (A herbicidal effect or phytotoxicity of 90% or more) | 5 (A herbicidal effect or phytotoxicity of 90% or more) | 5 (A herbicidal effect or phytotoxicity of 90% or more)
Cc1ccc(CS(=O)(=O)C2=NOC(C)(C)C2)cc1C [Compound 1-513] |  | 5 (A herbicidal effect or phytotoxicity of 90% or more) |  | 5 (A herbicidal effect or phytotoxicity of 90% or more) | 5 (A herbicidal effect or phytotoxicity of 90% or more) | 5 (A herbicidal effect or phytotoxicity of 90% or more)
CC1(C)CC(S(=O)(=O)Cc2cc(F)c(F)cc2F)=NO1 [Compound 1-510] |  | 4 (A herbicidal effect or phytotoxicity of 70% to less than 90%) |  | 5 (A herbicidal effect or phytotoxicity of 90% or more) | 5 (A herbicidal effect or phytotoxicity of 90% or more) | 5 (A herbicidal effect or phytotoxicity of 90% or more)
C=CCOc1cccc(C)c1CS(=O)(=O)C1=NOC(C)(C)C1 [Compound 1-606] |  | 4 (A herbicidal effect or phytotoxicity of 70% to less than 90%) |  | 5 (A herbicidal effect or phytotoxicity of 90% or more) | 5 (A herbicidal effect or phytotoxicity of 90% or more) | 5 (A herbicidal effect or phytotoxicity of 90% or more)
COCc1ccccc1CS(=O)(=O)C1=NOC(C)(C)C1 [Compound 1-160] | 5 (A herbicidal effect or phytotoxicity of 90% or more) | 5 (A herbicidal effect or phytotoxicity of 90% or more) | 5 (A herbicidal effect or phytotoxicity of 90% or more) | 5 (A herbicidal effect or phytotoxicity of 90% or more) |  | 
COc1ccc([N+](=O)[O-])cc1CS(=O)(=O)C1=NOC(C)(C)C1 [Compound 1-530] |  | 5 (A herbicidal effect or phytotoxicity of 90% or more) |  | 5 (A herbicidal effect or phytotoxicity of 90% or more) | 5 (A herbicidal effect or phytotoxicity of 90% or more) | 5 (A herbicidal effect or phytotoxicity of 90% or more)
CC1(C)CC(S(=O)(=O)Cc2ccccc2S(C)(=O)=O)=NO1 [Compound 1-106] | 5 (A herbicidal effect or phytotoxicity of 90% or more) | 4 (A herbicidal effect or phytotoxicity of 70% to less than 90%) | 5 (A herbicidal effect or phytotoxicity of 90% or more) | 5 (A herbicidal effect or phytotoxicity of 90% or more) |  | 
Cc1cc(C)c(CS(=O)(=O)C2=NOC(C)(C)C2)c(C)c1 [Compound 1-529] |  | 5 (A herbicidal effect or phytotoxicity of 90% or more) |  | 5 (A herbicidal effect or phytotoxicity of 90% or more) | 5 (A herbicidal effect or phytotoxicity of 90% or more) | 5 (A herbicidal effect or phytotoxicity of 90% or more)
CC1(C)CC(S(=O)(=O)Cc2ccc(F)c(F)c2F)=NO1 [Compound 1-507] |  | 4 (A herbicidal effect or phytotoxicity of 70% to less than 90%) |  | 5 (A herbicidal effect or phytotoxicity of 90% or more) | 5 (A herbicidal effect or phytotoxicity of 90% or more) | 5 (A herbicidal effect or phytotoxicity of 90% or more)
CC1C(S(=O)(=O)Cc2c(F)cccc2F)=NOC1(C)C (stereo not shown) [Compound 1-495] | 5 (A herbicidal effect or phytotoxicity of 90% or more) | 5 (A herbicidal effect or phytotoxicity of 90% or more) | 5 (A herbicidal effect or phytotoxicity of 90% or more) | 5 (A herbicidal effect or phytotoxicity of 90% or more) |  | 
CC1(C)CC(S(=O)(=O)Cc2cc(Cl)ccc2Cl)=NO1 [Compound 1-489] | 5 (A herbicidal effect or phytotoxicity of 90% or more) | 4 (A herbicidal effect or phytotoxicity of 70% to less than 90%) | 5 (A herbicidal effect or phytotoxicity of 90% or more) | 5 (A herbicidal effect or phytotoxicity of 90% or more) |  | 
CCCC1(C)CC(S(=O)(=O)Cc2c(F)cccc2F)=NO1 (stereo not shown) [Compound 1-366] | 5 (A herbicidal effect or phytotoxicity of 90% or more) | 4 (A herbicidal effect or phytotoxicity of 70% to less than 90%) | 5 (A herbicidal effect or phytotoxicity of 90% or more) | 5 (A herbicidal effect or phytotoxicity of 90% or more) |  | 
CCC1(C)CC(S(=O)(=O)Cc2cccc(C)c2)=NO1 (stereo not shown) [Compound 1-202] | 4 (A herbicidal effect or phytotoxicity of 70% to less than 90%) | 4 (A herbicidal effect or phytotoxicity of 70% to less than 90%) | 5 (A herbicidal effect or phytotoxicity of 90% or more) | 5 (A herbicidal effect or phytotoxicity of 90% or more) |  | 
CCOc1cccc(OCC)c1CS(=O)(=O)C1=NOC(C)(C)C1 [Compound 1-536] |  | 4 (A herbicidal effect or phytotoxicity of 70% to less than 90%) |  | 5 (A herbicidal effect or phytotoxicity of 90% or more) | 5 (A herbicidal effect or phytotoxicity of 90% or more) | 5 (A herbicidal effect or phytotoxicity of 90% or more)
CC(C)Oc1cccc(F)c1CS(=O)(=O)C1=NOC(C)(C)C1 [Compound 1-570] |  | 5 (A herbicidal effect or phytotoxicity of 90% or more) |  | 5 (A herbicidal effect or phytotoxicity of 90% or more) | 5 (A herbicidal effect or phytotoxicity of 90% or more) | 5 (A herbicidal effect or phytotoxicity of 90% or more)
